Test results reported in the NIST ThermoML archive (doi:10.1021/je030101n).
± gives the expanded uncertainty stated by the source.

How the values were obtained:
[1] = 101.3 kPa, Liquid; for viscosity: Capillary tube (Ostwald / Ubbelohde) method; for mass density: Pycnometric method
[2] = xn = mol fraction of the nth substance listed; settings: 101.3 kPa, Liquid, x1 = 1; for viscosity: Capillary tube (Ostwald / Ubbelohde) method; for mass density: Pycnometric method

Row | SMILES | viscosity ([1]; 298.15 K) | mass density ([1]; 298.15 K) | viscosity ([1]; 303.15 K) | mass density ([1]; 303.15 K) | viscosity ([1]; 308.15 K) | mass density ([1]; 308.15 K) | viscosity ([1]; 313.15 K) | mass density ([1]; 313.15 K) | viscosity ([2]; 298.15 K) | mass density ([2]; 298.15 K) | viscosity ([2]; 303.15 K) | mass density ([2]; 303.15 K) | viscosity ([2]; 308.15 K) | mass density ([2]; 308.15 K) | viscosity ([2]; 313.15 K) | mass density ([2]; 313.15 K)
1 | CN(C)C=O [dimethylformamide] | 0.803 ± 0.006 mPa·s | 944.5 ± 0.3 kg/m3 | 0.756 ± 0.005 mPa·s | 939.8 ± 0.3 kg/m3 | 0.71 ± 0.005 mPa·s | 935.1 ± 0.3 kg/m3 | 0.673 ± 0.005 mPa·s | 930.2 ± 0.3 kg/m3 | – | – | – | – | – | – | – | –
2 | CN(C)C=O [dimethylformamide] + Nc1ccccc1 | – | – | – | – | – | – | – | – | 0.803 ± 0.006 mPa·s | 944.5 ± 0.3 kg/m3 | 0.756 ± 0.005 mPa·s | 939.8 ± 0.3 kg/m3 | 0.71 ± 0.005 mPa·s | 935.1 ± 0.3 kg/m3 | 0.673 ± 0.005 mPa·s | 930.2 ± 0.3 kg/m3
3 | N#Cc1ccccc1 [benzonitrile] | 1.171 ± 0.009 mPa·s | 1000.9 ± 0.6 kg/m3 | 1.126 ± 0.009 mPa·s | 996.4 ± 0.6 kg/m3 | 1.068 ± 0.009 mPa·s | 991.9 ± 0.6 kg/m3 | 1.001 ± 0.008 mPa·s | 987.2 ± 0.6 kg/m3 | – | – | – | – | – | – | – | –
4 | CN(C)C=O [dimethylformamide] + N#Cc1ccccc1 | – | – | – | – | – | – | – | – | 0.803 ± 0.006 mPa·s | 944.5 ± 0.3 kg/m3 | 0.756 ± 0.005 mPa·s | 939.8 ± 0.3 kg/m3 | 0.71 ± 0.005 mPa·s | 935.1 ± 0.3 kg/m3 | 0.673 ± 0.005 mPa·s | 930.2 ± 0.3 kg/m3
5 | Nc1ccccc1 [aniline] | 3.69 ± 0.028 mPa·s | 1017.2 ± 0.6 kg/m3 | 3.19 ± 0.024 mPa·s | 1012.9 ± 0.6 kg/m3 | 2.8 ± 0.021 mPa·s | 1008.6 ± 0.6 kg/m3 | 2.42 ± 0.018 mPa·s | 1004.2 ± 0.6 kg/m3 | – | – | – | – | – | – | – | –
